According to patent US20090082355A1, “Method of Combating Root Weevils” (BASF SE, priority 2006, published 2009):

Tests used:
Type in all cases: in vivo, Otiorhynchus sulcatus (black vine weevil)
Otiorhynchus sulcatus [1] = test: Control of Otiorhynchus sulcatus eggs/first instar larvae on the Spreading Yew (treated potting medium); conditions: DC formulation, Taxus media densiformis, 25 eggs per plant, live larvae recorded after 3 months
Method: Taxus media densiformis plants were planted in potting medium (60% parts pine bark, 20% hardwood bark and 20% peat) which had been treated before with a DC formulation of the active ingredient diluted with water. Plants were maintained outdoors under standard nursery management conditions throughout the growing season. Incubated vine weevil eggs were obtained from a culture of field-collected adults. Plants were infested with 25 brown eggs each. The total number of live larvae was recorded after 3 months. Each experiment was replicated 5 times.

Otiorhynchus sulcatus [2] = test: Control of Otiorhynchus sulcatus larvae in the woody ornamental Thuja occidentalis 'Holmstrub' (pot trial); conditions: for Average feeding on roots: method B, index 1 no feeding observed to 4 most roots are damaged; for Average number of total larvae: treatment method B (drench), 20 eggs per pot, approx. 8 months after treatment
Method: Root cuttings of Thuja occidentalis ‘Holmstrub’ were potted in 3-liter containers using a standard soil substrate and first placed on an outdoor container field for four months and then transferred to an indoor container field at a temperature of 15-20° C. for another four months. In treatment method A, 750 g Suscon (chloropyrifos)/m^3 were mixed through the soil substrate. In treatment method B, the calculated amount of product was dissolved in 0.75 l water and added to the 3 litre pot as a drench. The soil of the pot was moistened before application. Eggs of Otiorhynchus sulcatus (20 eggs per pot) were added to the pots 15 weeks after treatment. Approximately 8 months after treatment, the average total number of live larvae (hereinafter also referred to as “average of total larvae”) and the average feeding on the roots were determined. The feeding on the roots was assessed according to the following index rating:
1 no feeding observed 2 slight feeding 3 significant feeding, few root tips are present 4 most roots are damaged
Each experiment was replicated 4 times.

Otiorhynchus sulcatus [3] = test: Control of Otiorhynchus sulcatus adults on Euonymus fortunei 'Dart's Blanket': contact effect; conditions: 20° C.
Method: (§1) The efficacy of different doses of compound I-1 to control adults of the black vine weevil (Otiorhynchus sulcatus) was tested after direct contact and after feeding of the product. The formulated product was dissolved in water and the resulting aqueous solution/suspension was applied to black vine weevil adults directly or to Euonymus fortunei branches and the branches were exposed to black vine weevil adults.
The treatments were applied by spraying 10 black vine weevils per petri-dish. The vine weevils were completely moistened after spraying. Afterwards the vine weevils were put into a bucket, in which 5 untreated branches of Euonymus fortunei ‘Dart's Blanket’ were placed. The buckets were randomly placed on Danish lorries in a climate cell. After 1 and 5 days, the number of dead vine weevils was counted. The climate cell was adjusted at a constant temperature of 20° C. with 16 hours of light and 8 hours of darkness. Each treatment was replicated 4 times.

Otiorhynchus sulcatus [4] = test: Control of Otiorhynchus sulcatus adults on Euonymus fortunei 'Dart's Blanket': feeding effect; conditions: 10 untreated weevils, 20° C.
Method: as §1
4 plants of Euonymus fortunei ‘Dart's Blanket’ per treatment were sprayed until drip stadium. 10 untreated black vine weevils were put in a bucket in which 5 treated branches were placed. The buckets were randomly placed on Danish lorries in a climate cell. After 5 and 10 days the number of dead vine weevils were counted. The climate cell was adjusted at a constant temperature of 20° C. with 16 hours of light and 8 hours of darkness. Each treatment was replicated 4 times.

[5] = 1.14 g a.i./l sprayed on 10 weevils
[6] = 2.27 g a.i./l sprayed on 10 weevils
[7] = 4.56 g a.i./l sprayed on 10 weevils
[8] = branches sprayed with 1.14 g a.i./l
[9] = branches sprayed with 2.27 g a.i./l
[10] = branches sprayed with 4.56 g a.i./l

Structure (SMILES): CCNC(=NNc1c(Cl)cc(C(F)(F)F)cc1Cl)C1(C)CC1(Cl)Cl (stereo not drawn) [Compound I-1, N-Ethyl-2,2-dichloro-1-methylcyclopropane-carboxamide-2-(2,6-dichloro-α,α,α-trifluoro-p-tolyl)hydrazone]
- control (Otiorhynchus sulcatus [1]; rate 250 ppm in potting medium): over 95%
- control (Otiorhynchus sulcatus [1]; rate 750 ppm in potting medium): over 95%
- control (Otiorhynchus sulcatus [1]; rate 1500 ppm in potting medium): over 95%
- Average feeding on roots (Otiorhynchus sulcatus [2]; 0.9125 g or ml product/3 l pot): 1.1
- Average number of total larvae (Otiorhynchus sulcatus [2]; 0.9125 g or ml product/3 l pot): 0.1
- Average feeding on roots (Otiorhynchus sulcatus [2]; 1.825 g or ml product/3 l pot): 1.0
- Average number of total larvae (Otiorhynchus sulcatus [2]; 1.825 g or ml product/3 l pot): 0.0
- Average feeding on roots (Otiorhynchus sulcatus [2]; 3.65 g or ml product/3 l pot): 1.0
- Average number of total larvae (Otiorhynchus sulcatus [2]; 3.65 g or ml product/3 l pot): 0.0
- phytotoxicity (Otiorhynchus sulcatus [2]; Thuja occidentalis 'Holmstrub' pot trial): no signs of phytotoxicity
- efficacy against the larvae (in words) (Otiorhynchus sulcatus [2]; all treatments in different doses): effective against the larvae of Otiorhynchus sulcatus
- control of larvae and feeding damage compared with the standard treatment (Otiorhynchus sulcatus [2]; versus Suscon (chloropyrifos)): better control of Otiorhynchus sulcatus larvae and feeding damage than the standard treatment of Suscon (chloropyrifos)
- Average number of dead adults after 1 day (Otiorhynchus sulcatus [3]; [5]): 0.5
- Average number of dead adults after 5 days (Otiorhynchus sulcatus [3]; [5]): 6.0
- Average number of dead adults after 1 day (Otiorhynchus sulcatus [3]; [6]): 0.3
- Average number of dead adults after 5 days (Otiorhynchus sulcatus [3]; [6]): 9.0
- Average number of dead adults after 1 day (Otiorhynchus sulcatus [3]; [7]): 0.8
- Average number of dead adults after 5 days (Otiorhynchus sulcatus [3]; [7]): 8.5
- Average number of dead adults after 5 days (Otiorhynchus sulcatus [4]; [8]): 8.5
- Average number of dead adults after 10 days (Otiorhynchus sulcatus [4]; [8]): 10.0
- Average number of dead adults after 5 days (Otiorhynchus sulcatus [4]; [9]): 6.5
- Average number of dead adults after 10 days (Otiorhynchus sulcatus [4]; [9]): 8.8
- Average number of dead adults after 5 days (Otiorhynchus sulcatus [4]; [10]): 8.8
- Average number of dead adults after 10 days (Otiorhynchus sulcatus [4]; [10]): 10.0
